One may read the MIC as the least concentration at which growth counts as inhibited.

Test systems include Acinetobacter baumannii; Escherichia coli 09-240; Escherichia coli 09-280; Escherichia coli 170; Escherichia coli 5509; Salmonella typhimurium; Escherichia coli K91BK; Escherichia coli U16318.
Holding throughout (assay): ≥ marks a high value that may be exact or a test limit, other limits are often not marked, values filed in µg/mL are converted to µM
Test [1] relates to Candida albicans NCTC 3179.
For test [2], the system named is Enterococcus faecalis NCTC 12697.
Test [3] relates to Escherichia coli ATCC 25726.
The subject of test [4] is Escherichia coli ATCC 25922.
In test [5] the test system is Fusobacterium nucleatum NCTC 10562.
Test [6] deals with Helicobacter pylori ATCC 43504.
Test [7] has as its system Pseudomonas aeruginosa ATCC 27853.
For test [8], the system named is Pseudomonas aeruginosa PAO239.
The test system of test [9] is Staphylococcus aureus ATCC 25923.
In test [10] the test system is Stenotrophomonas maltophilia.
For test [11], the system named is Streptococcus mutans ATCC 10449.
Test [12] has as its system Acinetobacter baumannii 5821.
For test [13], the system named is Enterobacter cloacae 06-267.
The subject of test [14] is Enterobacter cloacae 14-262.
The test system of test [15] is Klebsiella pneumoniae 01-239.
Test [16] deals with Klebsiella pneumoniae 01-252.
Test [17] concerns Pseudomonas aeruginosa 3599.
For test [18], the system named is Pseudomonas aeruginosa 5106.
In test [19] the test system is Pseudomonas aeruginosa ATCC 9027.
The subject of test [20] is Staphylococcus aureus 01-001.
The subject of test [21] is Staphylococcus aureus 06-051.
Test [22] has as its system Staphylococcus aureus ATCC 29213.
Test [23] concerns Aeromonas salmonicida NCIMB 1102.
Test [24] relates to Bacillus subtilis IAM 1026.
The test system of test [25] is Escherichia coli JCM 1649.
The test system of test [26] is Photobacterium damselae subsp. piscicida Sp 9587.
Test [27] concerns Shewanella putrefaciens IAM 1509.
Test [28] deals with Staphylococcus aureus IAM 1011.
In test [29] the test system is Vibrio anguillarum NCIMB 829.
Test [30] deals with Vibrio parahaemolyticus Vp+1.
The subject of test [31] is Bacillus anthracis Sterne 34F2.
For test [32], the system named is Bacillus subtilis var. niger ATCC 9372.
In test [33] the test system is Staphylococcus aureus B38302.
For test [34], the system named is Bacillus licheniformis X39.
In test [35] the test system is Candida albicans ATCC 2002.
In test [36] the test system is Enterococcus faecium 091299.
For test [37], the system named is Psychrobacter faecalis X29.
In test [38] the test system is Rhodococcus rhodochrous X15.
Test [39] deals with Staphylococcus carnosus KHS.

Values after ≈ are worked out from the molar mass of the structure shown.

Take `CSCC[C@H](NC(=O)CN)C(=O)N[C@@H](C)C(=O)N[C@@H](CO)C(=O)N[C@@H](CCCCN)C(=O)N[C@@H](C)C(=O)NCC(=O)N[C@@H](CO)C(=O)N[C@H](C(=O)N[C@@H](CC(C)C)C(=O)NCC(=O)N[C@@H](CCCCN)C(=O)N[C@H](C(=O)N[C@@H](C)C(=O)N[C@@H](CCCCN)C(=O)N[C@H](C(=O)N[C@@H](C)C(=O)N[C@@H](CC(C)C)C(=O)N[C@@H](CCCCN)C(=O)N[C@@H](C)C(=O)N[C@@H](C)C(=O)N[C@@H](CC(C)C)C(N)=O)C(C)C)C(C)C)C(C)C` [GMASKAGSVLGKVAKVALKAAL]: the MIC in the test on Acinetobacter baumannii is 11.3 µM (≈ 23.4 µg/mL); in test [1], not below 50 µM; in test [2], not below 100 µM; in test [3], 12.5 µM (≈ 25.9 µg/mL); in test [4], 25 µM (≈ 51.7 µg/mL); in test [5], 12.5 µM (≈ 25.9 µg/mL). In addition, the minimum inhibitory concentration (MIC) in test [6] stood at 0.483 µM (≈ 1 µg/mL); in [7] it was 12.5 µM (≈ 25.9 µg/mL); in test [8], 25 µM (≈ 51.7 µg/mL); in test [9], 35.4 µM (≈ 73.2 µg/mL); in test [10], 5.66 µM (≈ 11.7 µg/mL); in test [11], 3.1 µM (≈ 6.42 µg/mL).
As for `CC[C@H](C)[C@H](N)C(=O)N[C@@H](Cc1c[nH]c2ccccc12)C(=O)N[C@@H](CO)C(=O)N[C@@H](C)C(=O)N[C@H](C(=O)N[C@@H](Cc1c[nH]c2ccccc12)C(=O)N[C@@H](CO)C(=O)NCC(=O)N[C@H](C(=O)N[C@@H](CCCCN)C(=O)NCC(=O)N[C@@H](CC(C)C)C(=O)N[C@@H](CC(C)C)C(N)=O)[C@@H](C)CC)[C@@H](C)CC` [IWSAIWSGIKGLL], the MIC in [12] is 14 µM (≈ 20.2 µg/mL); in test [13], not below 32 µM; in [14] it was not below 32 µM; against Escherichia coli 09-240, 30 µM (≈ 43.3 µg/mL); in the test with Escherichia coli 09-280, not below 32 µM; against Escherichia coli 170, not below 32 µM. Moreover, the MIC with Escherichia coli 5509 was not below 32 µM; in test [4], 15 µM (≈ 21.6 µg/mL); in test [15] it was not below 32 µM; in test [16], not below 32 µM; in [17], not below 32 µM; in test [18], not below 32 µM. Further, the MIC is more than 32 µM in test [7]; 2 µM (≈ 2.89 µg/mL) in [19]; 2 µM (≈ 2.89 µg/mL) in test [20]; 2 µM (≈ 2.89 µg/mL) in test [21]; 1 µM (≈ 1.44 µg/mL) in [9]; 4 µM (≈ 5.77 µg/mL) in test [22].
As for `CC[C@H](C)[C@H](NC(=O)CNC(=O)CNC(=O)[C@@H](NC(=O)[C@@H](N)Cc1ccccc1)[C@@H](C)CC)C(=O)N[C@H](C(=O)N[C@@H](CO)C(=O)N[C@@H](Cc1ccccc1)C(=O)N[C@H](C(=O)N[C@@H](CCCCN)C(=O)N[C@@H](CCCCN)C(=O)N[C@@H](CC(C)C)C(=O)N[C@@H](Cc1ccccc1)C(=O)O)[C@@H](C)CC)[C@@H](C)CC` [FIGGIISFIKKLF], the MIC was not below 33.7 µM in test [23]; 4.21 µM (≈ 6.25 µg/mL) in test [24]; not below 33.7 µM in test [25]; 8.43 µM (≈ 12.5 µg/mL) in [26]; not below 33.7 µM in the test with Salmonella typhimurium; 4.21 µM (≈ 6.25 µg/mL) in test [27]. For the same compound, the MIC in test [28] amounted to 2.11 µM (≈ 3.13 µg/mL); in [29], 8.43 µM (≈ 12.5 µg/mL); in [30] it was 16.9 µM (≈ 25 µg/mL).
As to `CC(=O)N[C@@H](C)C(=O)N[C@@H](CC(C)C)C(=O)N[C@@H](Cc1c[nH]c2ccccc12)C(=O)N[C@@H](CCCCN)C(=O)N[C@H](C(=O)N[C@@H](CC(C)C)C(=O)N[C@@H](CC(C)C)C(=O)N[C@@H](CCCCN)C(=O)N[C@@H](CCCCN)C(=O)N[C@H](C(=O)N[C@@H](CC(C)C)C(=O)N[C@@H](CCCCN)C(=O)N[C@@H](C)C(N)=O)C(C)C)[C@@H](C)O` [ALWKTLLKKVLKA], the MIC in [31] was not below 70.7 µM; in test [32] it was 4.42 µM (≈ 6.86 µg/mL); against Escherichia coli K91BK, not below 100 µM; with Escherichia coli U16318 it was 25 µM (≈ 38.8 µg/mL); in [33], 25 µM (≈ 38.8 µg/mL).
Turning to `CC[C@H](C)[C@H](NC(=O)[C@H](CC(C)C)NC(=O)[C@H](CC(C)C)NC(=O)[C@H](CC(=O)O)NC(=O)[C@H](CCCCN)NC(=O)[C@@H](NC(=O)[C@@H](NC(=O)CNC(=O)[C@H](CC(C)C)NC(=O)[C@H](CC(C)C)NC(=O)[C@@H](N)CO)[C@@H](C)O)C(C)C)C(=O)NCC(=O)N[C@@H](C)C(=O)NCC(=O)N[C@@H](CCCCN)C(=O)N[C@@H](CO)C(=O)N[C@@H](C)C(=O)N[C@@H](C)C(=O)N[C@@H](CCC(N)=O)C(=O)N[C@@H](CO)C(=O)N[C@H](C(=O)N[C@@H](CC(C)C)C(=O)N[C@@H](CCCCN)C(=O)NCC(=O)N[C@@H](CC(C)C)C(=O)N[C@@H](CO)C(=O)N[C@H]1CSSC[C@@H](C(=O)O)NC(=O)[C@H](CC(=O)O)NC(=O)[C@H](CCCCN)NC(=O)[C@H](CO)NC(=O)[C@H](CC(C)C)NC(=O)[C@H](CCCCN)NC1=O)C(C)C` [SLLGTVKDLLIGAGKSAAQSVLKGLSCKLSKDC], the MIC is not below 37.5 µM in test [34]; 19 µM (≈ 62.8 µg/mL) in test [35]; not below 150 µM in test [36]; 9.5 µM (≈ 31.4 µg/mL) in [37]; 9.5 µM (≈ 31.4 µg/mL) in test [38]; 19 µM (≈ 62.8 µg/mL) in test [9]. Further, the MIC in test [39] is not below 150 µM.

Values taken from DBAASP.
